Tests used:
R. subcapitata = assay: Minimum Inhibitory Concentration (MIC) test, 96-well microtiter plate; format: cell-based; set-up: unit not given here; settings: concentration of BIT; BIT alone or with potentiator, Molar Eq (Pot:BIT) 10:1
P. acnes = assay: as above; format: cell-based; settings: Molar Eq. HBED 10×, 8-HQ 5×, DTPA 10×, Desferrioxamine 1×
Experimental: (§1) Activities of antimicrobial compositions of the present invention were tested against a range of typical skin microorganisms in a Minimum Inhibitory Concentration (MIC) test. MICs for the organisms were determined in a standard 96-well microtiter plate assay in Brain Heart Infusion Broth (BHI) for P. acnes; Tryptic Soy Broth (TSB) for the remaining bacteria; Ushijima Broth for M. furfur; Sabouraud Dextrose Broth (SDB) for other fungi. Samples were tested in duplicate on separate plates. For bacteria and fungi plates, samples were serially diluted into double strength media on the microtiter plates. The bacterial or fungal inocula, suspended in sterile deionized water, were then added to the wells in 1:1 ratio to the medium. The final concentration of bacteria in the wells was 5×10^5 CFUs/mL, the final concentration of fungi was 5×10^4 cells or spores/mL. Plates were incubated: anaerobically at 35° C. for 7 days for P. acnes; aerobically at 35° C. for 2 days for the remaining bacteria and aerobically at 35° C. for 7 days for M. furfur; aerobically at 28° C. for 7 days for T. mentagrophytes.

E. coli [1] = assay: as above; format: cell-based; settings: Active ZPT alone or plus chelator or chelator + Zn(II); Molar Ratio HBED 10×, 8-HQ 5×, 8-HQ + Zn(II) 1×, 2-HPNO 10×
Experimental: as §1

P. faveolarum = assay: as above; format: cell-based; set-up: unit not given here; settings: concentration of BIT; BIT alone or with potentiator, Molar Eq (Pot:BIT) 10:1
Experimental: as §1

T. mentagrophytes = assay: as above; format: cell-based; set-up: unit not given here; settings: Active ZPT alone or plus chelator or chelator + Zn(II); Molar Ratio HBED 10×, 8-HQ 5×, 8-HQ + Zn(II) 1×, 2-HPNO 10×
Experimental: as §1

S. epidermidis = assay: as above; format: cell-based; set-up: unit not given here; settings: Active ZPT alone or plus chelator or chelator + Zn(II); Molar Ratio HBED 10×, 8-HQ 5×, 8-HQ + Zn(II) 1×, 2-HPNO 10×
Experimental: as §1

M. furfur = assay: as above; format: cell-based; set-up: unit not given here; settings: Active ZPT alone or plus chelator or chelator + Zn(II); Molar Ratio HBED 10×, 8-HQ 5×, 8-HQ + Zn(II) 1×, 2-HPNO 10×
Experimental: as §1

B. subtilis = assay: as above; format: cell-based; set-up: unit not given here; settings: concentration of BIT; BIT alone or with potentiator, Molar Eq (Pot:BIT) 10:1
Experimental: as §1

A. pullulans = assay: as above; format: cell-based; set-up: unit not given here; settings: concentration of BIT; BIT alone or with potentiator, Molar Eq (Pot:BIT) 10:1
Experimental: as §1

A. brasiliensis = assay: as above; format: cell-based; set-up: unit not given here; settings: concentration of BIT; BIT alone or with potentiator, Molar Eq (Pot:BIT) 10:1
Experimental: as §1

P. aeruginosa [2] = assay: as above; format: cell-based; set-up: unit not given here
Experimental: as §1

C. pyrenoidosa = assay: as above; format: cell-based; set-up: unit not given here; settings: concentration of BIT; BIT alone or with potentiator, Molar Eq (Pot:BIT) 10:1
E. coli [3] = assay: Time-kill test (microbial reduction); format: cell-based; settings: E. coil; for log reduction: from initial microbial population
Experimental: (§2) Time-kill test were performed to assess microbial reduction by antimicrobial agents, with and without chelators, against S. aureus, P. aeruginosa, and E. coli.
(§3) 100 μL of sample and 100 μL of bacterial suspension at 5×10^5 cells/mL was loaded into the first well of each row in a 96-well plate, mixed and after specific contact time, 10-fold serial dilutions were made using a multichannel pipette by transferring 20 μL into 180 μL of Letheen broth, mixing 10 times. The process was repeated. Thereafter, three replicates of 10 μL from each of the six selected dilutions were plated onto Tryptic Soy Agar using a 2-20 μL monochannel pipette. Plates were allowed to dry, then placed into an incubator at 35° C. for 24 hrs. Colonies (0.5-1 mm) were enumerated using a colony counter.

P. aeruginosa [4] = assay: Time-kill test (microbial reduction); format: cell-based; settings: for log reduction: from initial microbial population
Experimental: as §2, §3

S. aureus = assay: Time-kill test (microbial reduction); format: cell-based; settings: for log reduction: from initial microbial population
Experimental: as §2, §3

[5] = system: S. aureus, P. aeruginosa, and E. coli; settings: in combination with ZPT
Experimental: as §2, §3

## O=C(O)CN(CCN(CC(=O)O)Cc1ccccc1O)Cc1ccccc1O [HBED, N,N-bis(2-hydroxybenzyl)ethylenediamine-N,N-diacetic acid]
R. subcapitata
  MIC R. subcapitata: 4.06
P. acnes; Benzoyl Peroxide without chelator or with chelator
  MIC values against P. acnes, Benzoyl Peroxide: 3.13 ppm
P. acnes; Salicylic Acid without chelator or with chelator
  MIC values against P. acnes, Salicylic Acid: 3.13 ppm
E. coli [1]
  MIC E. Coli: 15.63
P. faveolarum
  MIC P. faveolarum: 4.06
T. mentagrophytes
  MIC T. mentagrophytes: 0.49
S. epidermidis
  MIC S. epidermidis: 0.98
M. furfur
  MIC M. furfur: 3.91
B. subtilis
  MIC B. subtilis: 0.51
A. pullulans
  MIC A. pullulans: 4.06
A. brasiliensis
  MIC A. brasiliensis: 32.50
P. aeruginosa [2]; Active ZPT alone or plus chelator or chelator + Zn(II), Molar Ratio HBED 10×, 8-HQ 5×, 8-HQ + Zn(II) 1×, 2-HPNO 10×
  MIC P. aeruginosa: 62.5
P. aeruginosa [2]; concentration of BIT, BIT alone or with potentiator, Molar Eq (Pot:BIT) 10:1
  MIC P. aeruginosa: 8.13
C. pyrenoidosa
  MIC C. pyrenoidsa: 2.03
E. coli [3]; 4 hr contact
  CFU: 8.3 × 10^5 CFUs/mL
  log reduction: 2 log
E. coli [3]; 8 hr contact
  CFU: 1.6 × 10^6 CFUs/mL
  log reduction: 2 log
P. aeruginosa [4]; 4 hr contact
  CFU: >10^7 CFUs/mL
  log reduction: 0 log
P. aeruginosa [4]; 8 hr contact
  CFU: 1.6 × 10^5 CFUs/mL
  log reduction: 3 log
S. aureus; 4 hr contact
  CFU: 1.4 × 10^6 CFUs/mL
  log reduction: 1 log
S. aureus; 8 hr contact
  CFU: 2.3 × 10^5 CFUs/mL
  log reduction: 2 log
[5]
  ranking of chelators in time-kill studies: best chelator
